Experimental data reported in ChEMBL document CHEMBL5230113, “2-substituted benzothiazoles as antiproliferative agents: Novel insights on structure-activity relationships” (Eur J Med Chem, 2020).
Values belong to the molecule of their own block, whether it stands above or below them.

Legend:
[1] = test system: PC-3; assay: Cytotoxicity against human PC-3 cells assessed as inhibition of cell growth; assay type: functional, cell-based
[2] = test system: SW-620; assay: Cytotoxicity against human SW620 cells assessed as inhibition of cell growth; assay type: functional, cell-based
[3] = Cytotoxicity against human SPCA1 cells assessed as inhibition of cell growth; assay type: functional, cell-based
[4] = test system: HeLa; assay: Antiproliferative activity against human HeLa cells assessed as cell growth inhibition; assay type: functional, cell-based
[5] = target: Tyrosine-protein kinase ABL1 (Homo sapiens, UniProt P00519); assay: Inhibition of wild type Abl (unknown origin)
[6] = target: Tyrosine-protein kinase ABL1 (Mus musculus, UniProt P00520, T315I); assay: Inhibition of Abl T315I mutant in mouse BaF3 cells; assay type: cell-based
[7] = target: Tyrosine-protein kinase ABL1 (Mus musculus, UniProt P00520); assay: Inhibition of wild type Abl in mouse BaF3 cells; assay type: cell-based
[8] = target: Aryl hydrocarbon receptor (Homo sapiens, UniProt P35869); assay: Binding affinity to AhR (unknown origin)
[9] = target: Carbonic anhydrase 9 (Homo sapiens, UniProt Q16790); assay: Inhibition of CA9 (unknown origin)
[10] = test system: SK-HEP1; assay: Cytotoxicity against human SK-HEP1 cells assessed as cell growth inhibition; assay type: functional
[11] = test system: NUGC-3; assay: Cytotoxicity against human NUGC-3 cells assessed as cell growth inhibition; assay type: functional
[12] = test system: MDA-MB-231; assay: Cytotoxicity against human MDA-MB-231 cells assessed as cell growth inhibition; assay type: functional, cell-based
[13] = test system: K562; assay: Cytotoxicity against human K562 cells; assay type: functional
[14] = target: Angiopoietin-1 receptor (Homo sapiens, UniProt Q02763); assay: Inhibition of Tie2 (unknown origin)
[15] = test system: KM12; assay: Cytotoxicity against human KM12 cells assessed as cell growth inhibition; assay type: functional
[16] = test system: HCT-116; assay: Cytotoxicity against human HCT-116 cells assessed as inhibition of cell growth; assay type: functional, cell-based
[17] = test system: MCF7; assay: Cytotoxicity against human MCF7 cells assessed as inhibition of cell growth; assay type: functional, cell-based
[18] = target: Tubulin; assay: Inhibition of tubulin polymerization (unknown origin); assay type: protein-complex assay, Homo sapiens
[19] = test system: HepG2; assay: Cytotoxicity against human HepG2 cells assessed as inhibition of cell growth; assay type: functional, cell-based
[20] = test system: SMMC-7721; assay: Cytotoxicity against human SMMC-7721 cells assessed as cell growth inhibition; assay type: functional, cell-based
[21] = target: T1, Prostaglandin G/H synthase 2 (Homo sapiens, UniProt P35354); assay: Inhibition of COX-2 (unknown origin)
T1 sequence (P35354 whole entry): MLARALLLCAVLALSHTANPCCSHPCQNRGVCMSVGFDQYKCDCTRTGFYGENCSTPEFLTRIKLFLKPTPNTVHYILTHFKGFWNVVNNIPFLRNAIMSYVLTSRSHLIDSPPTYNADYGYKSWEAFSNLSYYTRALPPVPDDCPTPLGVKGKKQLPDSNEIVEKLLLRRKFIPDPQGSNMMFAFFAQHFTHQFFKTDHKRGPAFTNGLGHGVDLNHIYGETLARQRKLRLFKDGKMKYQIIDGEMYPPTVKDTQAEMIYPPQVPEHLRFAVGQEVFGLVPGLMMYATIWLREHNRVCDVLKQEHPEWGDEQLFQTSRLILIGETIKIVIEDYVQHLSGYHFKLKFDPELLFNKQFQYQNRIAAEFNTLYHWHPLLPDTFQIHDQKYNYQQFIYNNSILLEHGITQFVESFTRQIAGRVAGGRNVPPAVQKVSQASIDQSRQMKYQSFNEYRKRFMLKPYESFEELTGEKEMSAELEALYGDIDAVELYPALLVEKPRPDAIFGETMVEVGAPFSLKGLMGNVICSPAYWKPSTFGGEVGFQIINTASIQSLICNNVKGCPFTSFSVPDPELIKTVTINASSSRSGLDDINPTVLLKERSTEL

[22] = target: Prostaglandin G/H synthase 1 (Homo sapiens, UniProt P23219); assay: Inhibition of COX-1 (unknown origin)
[23] = test system: A549; assay: Antiproliferative activity against human A549 cells assessed as cell growth inhibition; assay type: functional, cell-based
[24] = test system: C6; assay: Cytotoxicity against rat C6 cells assessed as inhibition of cell growth; assay type: functional, cell-based

Chain of Tyrosine-protein kinase ABL1 (Mus musculus, UniProt P00520, T315I) (P00520 whole entry T315I): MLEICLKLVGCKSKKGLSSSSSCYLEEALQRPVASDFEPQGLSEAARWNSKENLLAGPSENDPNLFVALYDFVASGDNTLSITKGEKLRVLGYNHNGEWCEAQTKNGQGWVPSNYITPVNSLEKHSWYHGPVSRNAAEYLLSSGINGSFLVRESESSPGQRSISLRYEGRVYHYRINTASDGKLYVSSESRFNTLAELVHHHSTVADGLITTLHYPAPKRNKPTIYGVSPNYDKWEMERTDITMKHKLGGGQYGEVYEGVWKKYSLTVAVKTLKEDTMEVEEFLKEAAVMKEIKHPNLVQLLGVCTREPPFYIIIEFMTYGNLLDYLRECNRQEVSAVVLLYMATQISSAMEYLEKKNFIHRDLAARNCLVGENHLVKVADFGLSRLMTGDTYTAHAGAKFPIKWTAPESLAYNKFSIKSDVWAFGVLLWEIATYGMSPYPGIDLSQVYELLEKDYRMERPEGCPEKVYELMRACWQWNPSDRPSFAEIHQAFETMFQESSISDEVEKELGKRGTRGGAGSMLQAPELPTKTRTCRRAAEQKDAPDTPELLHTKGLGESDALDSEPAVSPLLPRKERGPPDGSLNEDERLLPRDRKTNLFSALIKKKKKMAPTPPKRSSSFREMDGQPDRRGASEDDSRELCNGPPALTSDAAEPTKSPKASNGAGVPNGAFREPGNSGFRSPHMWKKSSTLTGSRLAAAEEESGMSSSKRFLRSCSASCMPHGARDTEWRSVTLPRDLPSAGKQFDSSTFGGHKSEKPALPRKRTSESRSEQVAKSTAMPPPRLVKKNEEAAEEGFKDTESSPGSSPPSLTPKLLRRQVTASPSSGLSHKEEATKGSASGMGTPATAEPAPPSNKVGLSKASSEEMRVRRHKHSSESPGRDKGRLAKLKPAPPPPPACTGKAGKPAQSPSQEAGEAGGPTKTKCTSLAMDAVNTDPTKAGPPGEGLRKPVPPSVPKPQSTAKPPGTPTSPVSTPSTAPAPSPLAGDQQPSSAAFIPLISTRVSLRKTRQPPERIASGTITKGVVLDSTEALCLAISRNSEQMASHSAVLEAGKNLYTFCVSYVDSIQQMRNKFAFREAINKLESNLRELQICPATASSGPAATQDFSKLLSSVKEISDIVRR
Chain of Tyrosine-protein kinase ABL1 (Mus musculus, UniProt P00520) (P00520 whole entry): as the sequence (P00520 whole entry T315I) above, with I315T counted along it
Chain of Tyrosine-protein kinase ABL1 (Homo sapiens, UniProt P00519) (P00519 whole entry): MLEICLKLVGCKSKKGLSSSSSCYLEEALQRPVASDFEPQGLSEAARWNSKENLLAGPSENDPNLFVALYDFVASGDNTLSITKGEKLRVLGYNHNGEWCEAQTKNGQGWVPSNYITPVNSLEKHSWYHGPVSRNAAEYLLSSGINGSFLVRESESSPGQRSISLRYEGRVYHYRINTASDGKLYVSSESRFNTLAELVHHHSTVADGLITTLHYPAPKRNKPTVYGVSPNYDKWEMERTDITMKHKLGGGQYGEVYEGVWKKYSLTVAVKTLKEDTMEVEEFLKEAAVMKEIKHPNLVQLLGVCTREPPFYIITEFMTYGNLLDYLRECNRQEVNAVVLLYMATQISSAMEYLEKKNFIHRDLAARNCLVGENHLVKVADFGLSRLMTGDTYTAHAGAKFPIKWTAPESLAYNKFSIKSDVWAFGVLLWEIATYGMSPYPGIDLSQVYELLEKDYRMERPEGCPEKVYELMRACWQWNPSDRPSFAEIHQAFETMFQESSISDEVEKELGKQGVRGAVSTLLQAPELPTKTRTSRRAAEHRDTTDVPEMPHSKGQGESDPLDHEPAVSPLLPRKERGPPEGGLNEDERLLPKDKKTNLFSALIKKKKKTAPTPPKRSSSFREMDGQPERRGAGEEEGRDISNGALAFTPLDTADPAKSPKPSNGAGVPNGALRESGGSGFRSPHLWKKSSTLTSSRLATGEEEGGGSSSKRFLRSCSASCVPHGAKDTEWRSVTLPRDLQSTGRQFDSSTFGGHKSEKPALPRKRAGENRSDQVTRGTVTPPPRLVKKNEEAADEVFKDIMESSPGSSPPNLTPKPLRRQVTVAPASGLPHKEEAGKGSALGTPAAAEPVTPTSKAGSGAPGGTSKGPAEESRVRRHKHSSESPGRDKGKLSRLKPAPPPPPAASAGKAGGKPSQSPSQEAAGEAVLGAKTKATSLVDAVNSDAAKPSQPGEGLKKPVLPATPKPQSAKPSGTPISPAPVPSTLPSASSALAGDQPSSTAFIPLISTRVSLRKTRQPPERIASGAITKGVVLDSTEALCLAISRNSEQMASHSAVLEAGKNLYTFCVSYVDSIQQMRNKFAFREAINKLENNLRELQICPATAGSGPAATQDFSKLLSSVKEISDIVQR
Chain of Angiopoietin-1 receptor (Q02763 whole entry): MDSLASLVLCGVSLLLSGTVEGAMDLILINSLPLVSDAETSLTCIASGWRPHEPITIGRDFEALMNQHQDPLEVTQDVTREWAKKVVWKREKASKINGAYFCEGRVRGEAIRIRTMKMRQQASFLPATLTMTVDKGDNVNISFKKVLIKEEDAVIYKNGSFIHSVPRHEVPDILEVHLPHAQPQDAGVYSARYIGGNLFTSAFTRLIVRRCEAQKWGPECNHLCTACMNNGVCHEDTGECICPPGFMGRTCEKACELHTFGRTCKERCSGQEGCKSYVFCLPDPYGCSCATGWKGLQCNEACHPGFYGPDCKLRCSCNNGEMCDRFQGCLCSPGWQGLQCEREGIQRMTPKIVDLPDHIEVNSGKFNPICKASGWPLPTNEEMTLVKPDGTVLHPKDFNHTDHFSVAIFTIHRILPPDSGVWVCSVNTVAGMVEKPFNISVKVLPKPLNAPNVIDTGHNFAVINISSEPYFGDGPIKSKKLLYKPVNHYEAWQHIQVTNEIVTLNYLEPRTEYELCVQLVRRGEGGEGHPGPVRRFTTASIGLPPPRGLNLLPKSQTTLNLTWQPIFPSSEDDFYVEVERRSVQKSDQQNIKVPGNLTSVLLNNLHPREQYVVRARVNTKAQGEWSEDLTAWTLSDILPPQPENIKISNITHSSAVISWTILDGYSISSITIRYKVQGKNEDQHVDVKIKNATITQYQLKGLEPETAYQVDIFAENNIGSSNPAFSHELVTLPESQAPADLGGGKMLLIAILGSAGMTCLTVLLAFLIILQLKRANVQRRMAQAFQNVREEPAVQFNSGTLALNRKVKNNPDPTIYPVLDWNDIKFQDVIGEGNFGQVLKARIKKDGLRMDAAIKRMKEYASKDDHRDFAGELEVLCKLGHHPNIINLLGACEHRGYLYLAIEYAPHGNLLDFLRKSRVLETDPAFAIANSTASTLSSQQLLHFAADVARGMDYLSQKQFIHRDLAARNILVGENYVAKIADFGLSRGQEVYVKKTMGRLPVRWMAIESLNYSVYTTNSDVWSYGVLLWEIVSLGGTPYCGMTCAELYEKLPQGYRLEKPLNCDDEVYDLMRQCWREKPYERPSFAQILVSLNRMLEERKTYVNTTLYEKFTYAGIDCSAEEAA
Chain of Prostaglandin G/H synthase 1 (P23219 whole entry): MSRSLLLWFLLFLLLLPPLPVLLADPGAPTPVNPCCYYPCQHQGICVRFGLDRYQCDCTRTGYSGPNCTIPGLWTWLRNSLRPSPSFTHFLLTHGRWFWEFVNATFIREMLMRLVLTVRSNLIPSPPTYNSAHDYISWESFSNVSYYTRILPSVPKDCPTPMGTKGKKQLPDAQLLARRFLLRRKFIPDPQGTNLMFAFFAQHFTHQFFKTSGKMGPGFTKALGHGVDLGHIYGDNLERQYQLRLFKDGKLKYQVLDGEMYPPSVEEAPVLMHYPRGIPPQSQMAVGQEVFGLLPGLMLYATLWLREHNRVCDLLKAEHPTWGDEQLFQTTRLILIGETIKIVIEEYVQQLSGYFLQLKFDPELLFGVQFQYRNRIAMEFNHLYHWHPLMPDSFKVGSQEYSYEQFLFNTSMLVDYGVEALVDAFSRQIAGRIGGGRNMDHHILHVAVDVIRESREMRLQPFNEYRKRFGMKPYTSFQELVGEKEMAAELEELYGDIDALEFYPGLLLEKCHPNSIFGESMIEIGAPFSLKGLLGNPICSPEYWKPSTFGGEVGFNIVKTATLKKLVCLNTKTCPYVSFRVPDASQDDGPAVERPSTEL
Chain of Aryl hydrocarbon receptor (P35869 whole entry): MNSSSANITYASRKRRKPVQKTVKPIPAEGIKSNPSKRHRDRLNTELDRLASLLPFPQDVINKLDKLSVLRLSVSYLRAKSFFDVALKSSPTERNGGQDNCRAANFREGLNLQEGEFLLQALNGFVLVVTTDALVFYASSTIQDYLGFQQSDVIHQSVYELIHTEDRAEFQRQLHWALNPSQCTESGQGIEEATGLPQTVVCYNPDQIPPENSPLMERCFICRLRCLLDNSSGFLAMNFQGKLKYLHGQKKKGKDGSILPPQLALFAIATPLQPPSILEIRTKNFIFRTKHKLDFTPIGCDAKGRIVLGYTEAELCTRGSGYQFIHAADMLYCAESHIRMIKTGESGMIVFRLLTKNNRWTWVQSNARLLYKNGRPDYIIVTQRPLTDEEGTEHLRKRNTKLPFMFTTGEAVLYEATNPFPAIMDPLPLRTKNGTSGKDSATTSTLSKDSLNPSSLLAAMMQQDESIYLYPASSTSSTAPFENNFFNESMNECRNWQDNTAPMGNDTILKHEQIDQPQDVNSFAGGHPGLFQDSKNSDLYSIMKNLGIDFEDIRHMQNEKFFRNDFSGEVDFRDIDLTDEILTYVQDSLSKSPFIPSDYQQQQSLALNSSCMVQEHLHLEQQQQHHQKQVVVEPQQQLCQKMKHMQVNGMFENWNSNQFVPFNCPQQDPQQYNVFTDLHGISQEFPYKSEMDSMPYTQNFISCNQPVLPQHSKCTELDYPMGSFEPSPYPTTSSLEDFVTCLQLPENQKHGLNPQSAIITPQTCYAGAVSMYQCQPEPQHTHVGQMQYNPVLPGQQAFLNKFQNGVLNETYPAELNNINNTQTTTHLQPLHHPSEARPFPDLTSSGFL

IC50 [4]: 5130 nM
Compound: O=C(CSc1nc2ccc(NC(=O)CCl)cc2s1)NCc1ccccc1
IC50 [1]: 6580 nM | IC50 [2]: 5120 nM | IC50 [3]: 3890 nM

IC50 [5]: 0.06 nM | IC50 [6]: 2140 nM | IC50 [7]: 3570 nM
Compound: CCNC(=O)Nc1nc2ccc(-c3ccccc3OC)cc2s1

IC50 [6]: 140 nM | IC50 [7]: 89 nM
Compound: COc1ccccc1-c1ccc2nc(NC(=O)NCCO)sc2c1

IC50 [6]: 78 nM | IC50 [7]: 46 nM
Compound: COc1ccccc1-c1ccc2nc(NC(=O)NCCN3CCN(C)CC3)sc2c1

IC50 [8]: 25 nM
Compound: COc1ccc(-c2nc3cc(F)ccc3s2)cc1OC

IC50 [9]: 490 nM
Compound: CCCC(Sc1nc2cc(Cl)ccc2s1)C(=O)NS(=O)(=O)c1ccc(OC)cc1 (configuration not stated)

Compound: Cc1cc(C)c2sc(NC(=O)c3ccc(C(F)(F)F)cc3)nc2c1
GI50 [10]: 290 nM | GI50 [11]: 290 nM | GI50 [12]: 290 nM

Compound: O=C(Nc1nc2ccc([N+](=O)[O-])cc2s1)c1ccc(C(F)(F)F)cc1
GI50 [10]: 860 nM | GI50 [11]: 860 nM | GI50 [12]: 860 nM

Compound: Cc1cc(C)c2sc(NC(=O)c3ccc(C#N)cc3)nc2c1
GI50 [10]: 290 nM | GI50 [11]: 290 nM | GI50 [12]: 290 nM

IC50 [14]: 0.82 nM
Compound: CCN1CCN(Cc2ccc(NC(=O)Nc3nc4ccc(Oc5ccnc(C(=O)NC)c5)cc4s3)cc2C(F)(F)F)CC1
GI50 [13]: 51.4 nM | GI50 [15]: 19 nM

Compound: Nc1ccc2sc(NC(=O)c3sc4ccccc4c3Cl)nc2c1
IC50 [16]: 4000 nM | IC50 [17]: 40 nM

Compound: O=C(CN1CCCCC1)Nc1ccc(-c2nc3ccccc3s2)cc1
IC50 [12]: 8 nM | IC50 [17]: 10 nM

Compound: COc1ccc(CN(C(=O)CSc2nc3ccccc3s2)c2cc(OC)c(OC)c(OC)c2)cc1O
IC50 [18]: 1900 nM

Compound: O=C(CN1CCOCC1)Nc1ccc(-c2nc3ccccc3s2)cc1
IC50 [12]: 8 nM | IC50 [17]: 10 nM

Compound: CN1CCN(CC(=O)Nc2ccc(-c3nc4ccccc4s3)cc2)CC1
IC50 [12]: 8 nM | IC50 [17]: 10 nM

Compound: COc1cccc2sc(NC(=O)c3ccc(C)cc3)nc12
GI50 [10]: 860 nM | GI50 [11]: 860 nM | GI50 [12]: 860 nM

Compound: Cc1cc(C)c2sc(NC(=O)c3ccc([N+](=O)[O-])cc3)nc2c1
GI50 [10]: 290 nM | GI50 [11]: 290 nM | GI50 [12]: 290 nM

Compound: Cc1ccc2nc(N/N=C/c3cccnc3Nc3ccc(Cl)cc3)sc2c1
IC50 [17]: 1030 nM

Compound: N=C(N)N/N=C/c1cn(-c2nc3ccc(Oc4ccc(F)cc4)cc3s2)nc1-c1ccccc1
IC50 [12]: 2410 nM | IC50 ([19]; Homo sapiens, HepG2, read-out: IC50): 3750 nM | IC50 [17]: 2230 nM | IC50 [20]: 2310 nM

Compound: Cc1nc(SCC(=O)Nc2nc3ccc(Cl)cc3s2)n(Nc2ccc([N+](=O)[O-])cc2)c1C
IC50 ([19]; hepg2): > 500 µg/mL

IC50 [21]: 100 nM | IC50 [22]: 9560 nM | IC50 [23]: > 25000 nM
Compound: CC1=NNC(=O)/C1=N/Nc1cccc(-c2nc3ccccc3s2)c1
IC50 [17]: > 25000 nM

Compound: COc1ccc2nc(NC(=O)CSc3nc(C)c(C)n3Nc3ccc([N+](=O)[O-])cc3)sc2c1
IC50 ([19]; hepg2): > 500 µg/mL | IC50 [24]: > 500 µg/mL
